Data published in patent US20090098589A1 (priority 2006, published 2009).

Assays:
Format in all cases: biochemical
[1] = molecular target: T1, A. niger phytase (Natuphos^R) (Aspergillus niger, UniProt P34752); assay: Phosphate release from substrate by enzyme, microtitre plate, molybdate detection; details: 10 mM substrate, pH 5.5, 1 h, 37° C.
T1 construct: purchased
Experimental: (§1) Enzymatic assays were carried out in microtitre plates in 100 μl of reaction mixture. The reaction mixture for acid phytases and phosphatases included: 10 mM of substrate in 200 mM sodium acetate buffer, pH 5.5 containing 0.8 mM CaCl2. For alkaline phytases and phosphatases the same conditions were used except sodium acetate buffer was replaced with 200 mM Tris*HCl buffer, pH 7.5. The reactions were allowed to proceed for 1 h at 37° C. after which time the released phosphate was measured by a modification of a known procedure (Heinonen J. K., Lahti R. J. Anal Biochem. 113 (2), 313-317 (1981)). Briefly, 200 pLI of a freshly prepared AMM solution ([…], 15 mM ammonium molybdate and acetone—1:1:2) was added to the 100 μl reaction mixture in each microtitre plate well. The absorbance at 390 nm was measured not earlier than 10 min and not later than 30 min after addition of the AMM reagent. The amount of phosphate was determined by building a calibration curve with phosphate solutions of known concentrations.
(§2) Both phytases and phosphatases catalyse the hydrolysis of phosphoesters. Thus, the difference between these two groups of enzymes is quantitative rather than qualitative and can be defined as the relative efficiency in hydrolysis of phytate and simple monophosphoesters such as e.g. glucose 6-phosphate or fructose 6-phosphate. Phosphatases tend to be relatively inefficient in hydrolysing phytate, and, conversely, most phytases hydrolyse mono-substituted sugar phosphates inefficiently. To test whether polyphosphorylated polyhydroxybenzenes can be used as mimics of phytate we have tested phosphate release from hexaphospho-benzenehexaol and fructose 6-phosphate by several different phytases and phosphatases. Phytases from Aspergillus niger (Natuphos^R), Escherichia coli (Phyzyme XP^R) and Peniophora lycii (Ronozyme^R) as well as potato acid phosphatase were assayed at pH 5.5 while alkaline bacterial phosphatase calf intestinal phosphatase and shrimp phosphatase were assayed at pH 7.5.

[2] = molecular target: Bacterial alkaline phosphatase (Escherichia coli, UniProt P00634); assay: as above; details: 10 mM substrate, pH 7.5, 1 h, 37° C.
Sequence of Bacterial alkaline phosphatase (P00634 22-471): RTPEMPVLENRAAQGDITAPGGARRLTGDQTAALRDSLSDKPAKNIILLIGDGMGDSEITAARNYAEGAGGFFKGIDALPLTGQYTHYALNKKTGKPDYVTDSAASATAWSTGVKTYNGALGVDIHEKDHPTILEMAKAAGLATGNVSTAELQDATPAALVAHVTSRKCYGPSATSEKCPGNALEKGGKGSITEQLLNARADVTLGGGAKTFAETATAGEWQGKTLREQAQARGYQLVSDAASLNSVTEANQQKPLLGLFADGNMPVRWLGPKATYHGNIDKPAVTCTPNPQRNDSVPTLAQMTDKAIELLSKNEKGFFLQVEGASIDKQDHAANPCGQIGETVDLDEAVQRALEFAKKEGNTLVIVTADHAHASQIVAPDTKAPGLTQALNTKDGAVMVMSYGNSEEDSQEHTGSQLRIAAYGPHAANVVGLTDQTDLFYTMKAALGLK
Experimental: as §1, §2

[3] = tested on: Calf intestine phosphatase; assay: as above; details: 10 mM substrate, pH 7.5, 1 h, 37° C.
Experimental: as §1, §2

[4] = molecular target: T2, E. coil phytase (Phyzyme XP^R) (Escherichia coli, UniProt P07102); assay: as above; details: 10 mM substrate, pH 5.5, 1 h, 37° C.
T2 construct: purchased
T2 sequence (P07102 23-432): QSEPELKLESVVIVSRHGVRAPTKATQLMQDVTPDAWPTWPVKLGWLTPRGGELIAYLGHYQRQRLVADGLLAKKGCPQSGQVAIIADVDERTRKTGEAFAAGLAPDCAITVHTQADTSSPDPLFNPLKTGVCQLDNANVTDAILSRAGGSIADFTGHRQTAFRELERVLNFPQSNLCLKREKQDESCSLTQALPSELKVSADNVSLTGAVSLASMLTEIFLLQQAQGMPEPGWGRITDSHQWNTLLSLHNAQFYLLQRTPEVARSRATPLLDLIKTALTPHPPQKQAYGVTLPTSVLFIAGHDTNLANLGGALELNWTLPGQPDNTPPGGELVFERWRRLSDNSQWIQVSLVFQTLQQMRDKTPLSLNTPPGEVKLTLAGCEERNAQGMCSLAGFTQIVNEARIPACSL
Experimental: as §1, §2

[5] = tested on: Peniophora lycii phytase (Ronozyme^R); assay: as above; details: 10 mM substrate, pH 5.5, 1 h, 37° C.
Experimental: as §1, §2

Potato acid phosphatase = assay: as above; details: 10 mM substrate, pH 5.5, 1 h, 37° C.
Experimental: as §1, §2

Shrimp phosphatase = assay: as above; details: 10 mM substrate, pH 7.5, 1 h, 37° C.
Experimental: as §1, §2

all tested phytases = assay: Phosphate release from substrate, summary for all tested phytases; details: compared with fructose 6-phosphate
Experimental: as §1
(§3) Both phytases and phosphatases catalyse the hydrolysis of phosphoesters. Thus, the difference between these two groups of enzymes is quantitative rather than qualitative and can be defined as the relative efficiency in hydrolysis of phytate and simple monophosphoesters such as e.g. glucose 6-phosphate or fructose 6-phosphate. […]

typical phosphatases = assay: Phosphate release from substrate, summary for typical phosphatases; details: all tested typical phosphatases, compared with fructose 6-phosphate
Experimental: as §1, §3

T1 sequence (P34752 24-467): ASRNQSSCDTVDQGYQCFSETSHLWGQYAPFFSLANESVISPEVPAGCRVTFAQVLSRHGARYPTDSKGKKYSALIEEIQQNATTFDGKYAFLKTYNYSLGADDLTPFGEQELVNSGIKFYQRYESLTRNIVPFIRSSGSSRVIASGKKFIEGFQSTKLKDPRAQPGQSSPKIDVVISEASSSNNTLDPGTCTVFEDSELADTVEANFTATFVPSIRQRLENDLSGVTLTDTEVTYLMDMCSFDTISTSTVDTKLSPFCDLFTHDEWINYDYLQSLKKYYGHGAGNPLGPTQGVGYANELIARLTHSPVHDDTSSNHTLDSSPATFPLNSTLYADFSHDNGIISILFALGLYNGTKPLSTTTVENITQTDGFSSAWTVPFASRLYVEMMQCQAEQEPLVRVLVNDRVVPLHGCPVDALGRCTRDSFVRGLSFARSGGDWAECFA

| Structure (SMILES) | Ratio of phosphate-releasing activities with the substrate and fructose 6-P [1] | Ratio of phosphate-releasing activities with the substrate and fructose 6-P [2] | Ratio of phosphate-releasing activities with the substrate and fructose 6-P [3] | Ratio of phosphate-releasing activities with the substrate and fructose 6-P [4] | Ratio of phosphate-releasing activities with the substrate and fructose 6-P [5] | Ratio of phosphate-releasing activities with the substrate and fructose 6-P (Potato acid phosphatase) | Ratio of phosphate-releasing activities with the substrate and fructose 6-P (Shrimp phosphatase) | Quality as substrate for all tested phytases (in words) (all tested phytases) | Quality as substrate for typical phosphatases (in words) (typical phosphatases) |
| --- | --- | --- | --- | --- | --- | --- | --- | --- | --- |
| O=P(O)(O)Oc1cc(OP(=O)(O)O)cc(OP(=O)(O)O)c1 | 280 | 1.0 | 1.0 | 500 | 250 | 3.9 | 3.8 | good substrate | good substrate |
| O=P(O)(O)Oc1c(OP(=O)(O)O)c(OP(=O)(O)O)c(OP(=O)(O)O)c(OP(=O)(O)O)c1OP(=O)(O)O [benzenehexaol hexaphosphate, Benzenehexaol hexaphosphate] | 250 | 0.01 | 0.01 | 122 | 2.7 | 0.23 | 0.1 | much better substrate than fructose 6-phosphate | the opposite is true |
